The values that follow come from US9802960B2 (MILLENNIUM PHARMACEUTICALS, INC., priority 2014, dated 2017).

By inhibition is commonly meant the percentage by which the read-out fell short of the control.

Each structure is given as a SMILES string. Where only a bound is given, the exact number is not on record here.

In this assay the target is Human VPS34 (Homo sapiens (Human), UniProt Q8NEB9). Kind of assay: Human VPS34 enzyme assay (Adapta TR-FRET). Format: biochemical. The note with it: compound concentration 1.11 μM; read-out: Percent Inhibition. A general note: In TR-FRET formats the signal depends on donor and acceptor labels being close together.
Human VPS34, sequence (Q8NEB9 whole entry): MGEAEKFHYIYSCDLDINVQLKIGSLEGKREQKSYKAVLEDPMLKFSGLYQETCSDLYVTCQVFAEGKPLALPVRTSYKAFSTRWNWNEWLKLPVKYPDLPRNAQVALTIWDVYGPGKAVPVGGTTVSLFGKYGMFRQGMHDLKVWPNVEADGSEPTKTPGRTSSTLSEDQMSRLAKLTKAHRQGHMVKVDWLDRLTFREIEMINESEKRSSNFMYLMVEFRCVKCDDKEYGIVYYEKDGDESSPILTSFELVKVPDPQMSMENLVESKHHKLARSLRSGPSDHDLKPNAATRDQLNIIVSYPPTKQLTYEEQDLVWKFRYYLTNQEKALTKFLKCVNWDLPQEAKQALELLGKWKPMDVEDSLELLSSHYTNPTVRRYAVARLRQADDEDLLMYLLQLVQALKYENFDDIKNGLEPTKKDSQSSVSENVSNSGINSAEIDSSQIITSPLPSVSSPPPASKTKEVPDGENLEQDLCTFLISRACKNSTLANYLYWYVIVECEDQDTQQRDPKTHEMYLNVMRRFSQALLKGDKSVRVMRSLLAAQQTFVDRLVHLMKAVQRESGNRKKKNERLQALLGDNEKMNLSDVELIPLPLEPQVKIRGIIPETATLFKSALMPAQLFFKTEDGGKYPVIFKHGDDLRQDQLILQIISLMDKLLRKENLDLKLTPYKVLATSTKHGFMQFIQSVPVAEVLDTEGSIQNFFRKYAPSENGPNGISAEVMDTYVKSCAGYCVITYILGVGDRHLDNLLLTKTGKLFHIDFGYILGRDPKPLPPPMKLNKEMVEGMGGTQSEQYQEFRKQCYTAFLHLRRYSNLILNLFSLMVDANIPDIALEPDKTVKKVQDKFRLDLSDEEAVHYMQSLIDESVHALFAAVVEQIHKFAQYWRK
Turning to `CNc1ncc(-c2ccnc(NC(C)=O)c2)cc1C(=O)N(C)C12CC(C1)C2` [Compound I-449, 2′-acetamido-N-(bicyclo[1.1.1]pent-1-yl)-N-methyl-6-(methylamino)-3,4′-bipyridine-5-carboxamide], the inhibition at 1.11 µM turned out to be 94%.
For the compound `CC(=O)Nc1cc(-c2ccnc(Nc3ccnc(C)n3)c2)cn2nccc12` [Compound I-450, N-(6-{2-[(2-methylpyrimidin-4-34)amino]pyridin-4-yl}pyrazolo[1,5-a]pyridin-4-yl)acetamide], the inhibition at 1.11 µM came out at 87%.
For `CC(=O)Nc1cc(-c2cncc(N3CCCN(C)S3(=O)=O)c2)ccn1` [Compound I-452, N-[5-(6-methyl-1,1-dioxido-1,2,6-thiadiazinan-2-yl)-3,4′-bipyridin-2′-yl]acetamide], the inhibition at 1.11 µM is over 99%.
For `Cc1nccc(Nc2cc(-c3c[n+]([O-])c(Cl)c(NS(=O)(=O)c4ccc(F)cc4F)c3C)ccn2)n1` [Compound I-454, N-(2-chloro-4-methyl-5-{2-[(2-methylpyrimidin-4-yl)amino]pyridin-4-yl}-1-oxidopyridin-3-yl)-2,4-difluorobenzenesulfonamide] the value was over 99%; for `CNS(=O)(=O)Nc1cc(-c2ccnc(NC(C)=O)c2)cnc1C` [Compound I-455, N-{6-methyl-5-[(methylsulfamoyl)amino]-3,4′-bipyridin-2′-yl}acetamide], over 99%; for `CCOC(=O)Nc1cc(-c2cnc(C)c(NS(=O)(=O)c3ccc(Cl)cc3F)c2)ccn1` [Compound I-456, ethyl (5-{[(4-chloro-2-fluorophenyl)sulfonyl]amino}-6-methyl-3,4′-bipyridin-2′-yl)carbamate], over 99%.
On to `Cc1nccc(Nc2cc(-c3cnc(Cl)c(C(=O)N4CCC4)c3C)ccn2)n1` [Compound I-457, azetidin-1-yl{6-chloro-4-methyl-2′-[(2-methylpyrimidin-4-yl)amino]-3,4′-bipyridin-5-yl}methanone], for which the inhibition at 1.11 µM came out at 95%.
For `CC(=O)Nc1cc(-c2cncc(N(C)S(=O)(=O)N(C)C)c2)ccn1` [Compound I-458, N-{5-[(dimethylsulfamoyl)(methyl)amino]-3,4′-bipyridin-2′-yl}acetamide] the value was over 99%; for `CC(=O)Nc1cc(-c2cncc(S(=O)(=O)Nc3ccccc3)c2)ccn1` [Compound I-459, N-[5-(phenylsulfamoyl)-3,4′-bipyridin-2′-yl]acetamide], 96%.
For `CC(=O)Nc1cc(-c2cnc(C)c(N3CCCNC3=O)c2)ccn1` [Compound I-460, N-[6-methyl-5-(2-oxotetrahydropyrimidin-1 (2H)-yl)-3,4′-bipyridin-2′-yl]acetamide] the value was 60%.
Take `CC(=O)Nc1cc(-c2cncc(S(=O)(=O)NC(C)(C)C)c2C)ccn1` [Compound I-462, N-(5-(N-(tert-butyl)sulfamoyl)-4-methyl-[3,4′-bipyridin]-2′-yl)acetamide]: the inhibition at 1.11 µM was determined as 98%.
On to `CC(=O)Nc1cc(-c2cnc(C)c(NS(=O)(=O)c3c(Cl)cccc3Cl)c2)ccn1` [Compound I-463, N-(5-{[(2,6-dichlorophenyl)sulfonyl]amino}-6-methyl-3,4′-bipyridin-2′-yl)acetamide], for which the inhibition at 1.11 µM is over 99%.
As for `CC(=O)Nc1cc(-c2cncc(S(=O)(=O)Nc3ccc(F)cc3F)c2)ccn1` [Compound I-464, N-{5-[(2,4-difluorophenyl)sulfamoyl]-3,4′-bipyridin-2′-yl}acetamide], the inhibition at 1.11 µM is over 99%.
For `CC(=O)Nc1cc(-c2cnc(C)c(NS(=O)(=O)c3cc(Cl)sc3Cl)c2)ccn1` [Compound I-465, N-(5-{[(2,5-dichloro-3-thienyl)sulfonyl]amino}-6-methyl-3,4′-bipyridin-2′-yl)acetamide] the value was 97%; for `Cc1c(-c2ccnc(Nc3ccnc(C4CC4)n3)c2)cnc(Cl)c1C(=O)N1CC(C)(C)C1` [Compound I-466, {6-chloro-2′-[(2-cyclopropylpyrimidin-4-yl)amino]-4-methyl-3,4′-bipyridin-5-yl}(3,3-dimethylazetidin-1-yl)methanone], 92%; for `CC(=O)Nc1cc(-c2cnc(Cl)c(N3CCCN(C)S3(=O)=O)c2)ccn1` [Compound I-467, N-[6-chloro-5-(6-methyl-1,1-dioxido-1,2,6-thiadiazinan-2-yl)-3,4′-bipyridin-2′-yl]acetamide], over 99%.
For `CC(=O)Nc1cc(-c2cncc(S(=O)(=O)NC34CC5CC(CC(C5)C3)C4)c2)ccn1` [Compound I-468, N-[5-(adamantan-1-ylsulfamoyl)-3,4′-bipyridin-2′-yl]acetamide] the value was over 99%; for `CCc1c(-c2ccnc(NC(C)=O)c2)cnc(Cl)c1NS(=O)(=O)c1ccc(F)cc1F` [Compound I-469, N-(6-chloro-5-{[(2,4-difluorophenyl)sulfonyl]amino}-4-ethyl-3,4′-bipyridin-2′-yl)acetamide], over 99%; for `COc1ncc(-c2ccnc(NC(C)=O)c2)cc1S(=O)(=O)NC12CC(C1)C2` [Compound I-470, N-[5-(bicyclo[1.1.1]pent-1-ylsulfamoyl)-6-methoxy-3,4′-bipyridin-2′-yl]acetamide], over 99%.
The result for `Cc1nccc(Nc2cc(-c3cnc(C)c(OC4CCCC4)c3)ccn2)n1` [Compound I-471, 5-(cyclopentyloxy)-6-methyl-N-(2-methylpyrimidin-4-yl)-3,4′-bipyridin-2′-amine] reads 98%.
For `CC(=O)Nc1cc(-c2cncc(Nc3ncco3)c2)ccn1` [Compound I-472, N-[5-(1,3-oxazol-2-ylamino)-3,4′-bipyridin-2′-yl]acetamide], the inhibition at 1.11 µM is 96%.
`CC(=O)Nc1cc(-c2cnc(Cl)c(N3CCCNS3(=O)=O)c2C)ccn1` [Compound I-473, N-[6-chloro-5-(1,1-dioxido-1,2,6-thiadiazinan-2-yl)-4-methyl-3,4′-bipyridin-2′-yl]acetamide]: the inhibition at 1.11 µM turned out to be 87%.
For `CC(=O)Nc1cc(-c2cncc(S(=O)(=O)N3CCC3)c2)ccn1` [Compound I-474, N-[5-(azetidin-1-ylsulfonyl)-3,4′-bipyridin-2′-yl]acetamide] the value was 89%.
The result for `Cc1nccc(Nc2cc(-c3cnc(C)c(Oc4ccccc4)c3)ccn2)n1` [Compound I-475, 6-methyl-N-(2-methylpyrimidin-4-yl)-5-phenoxy-3,4′-bipyridin-2′-amine] reads over 99%.
The result for `CC(=O)Nc1cc(-c2cc(NS(=O)(=O)N(C)C)c3ccnn3c2)ccn1` [Compound I-476, N-(4-{4-[(dimethylsulfamoyl)amino]pyrazolo[1,5-a]pyridin-6-yl}pyridin-2-yl)acetamide] reads 87%.
For the compound `CC(=O)Nc1cc(-c2cnc(Cl)c(NS(=O)(=O)N3CC4CCC3C4)c2C)ccn1` (stereo not shown) [Compound I-477, N-{5-[(2-azabicyclo[2.2.1]hept-2-ylsulfonyl)amino]-6-chloro-4-methyl-3,4′-bipyridin-2′-yl}acetamide], the inhibition at 1.11 µM was 93%.
The result for `CC(=O)Nc1cc(-c2cnc(C)c(OS(=O)(=O)c3ccc(F)cc3F)c2)ccn1` [Compound I-478, 2′-acetamido-6-methyl-3,4′-bipyridin-5-yl 2,4-difluorobenzenesulfonate] reads 84%; that for `CCOc1cc(-c2ccnc(Nc3ccnc(C)n3)c2)cnc1C` [Compound I-479, 5-ethoxy-6-methyl-N-(2-methylpyrimidin-4-yl)-3,4′-bipyridin-2′-amine], 98%.
The result for `Cc1nccc(Nc2cc(-c3cc(N)c4ccnn4c3)ccn2)n1` [Compound I-480, 6-{2-[(2-methylpyrimidin-4-yl)amino]pyridin-4-yl}pyrazolo[1,5-a]pyridin-4-amine] reads 99%; that for `CC(=O)Nc1cc(-c2cncc(S(=O)(=O)N3CCN(C)CC3)c2)ccn1` [Compound I-481, N-{5-[(4-methylpiperazin-1-yl)sulfonyl]-3,4′-bipyridin-2′-yl}acetamide], over 99%.
On to `Cc1nccc(Nc2cc(-c3cnc(C)c(NC(=O)N4CC(F)(F)C4)c3)ccn2)n1` [Compound I-482, 3,3-difluoro-N-{6-methyl-2′-[(2-methylpyrimidin-4-yl)amino]-3,4′-bipyridin-5-yl}azetidine-1-carboxamide], for which the inhibition at 1.11 µM is over 99%.
For `CC(=O)Nc1cc(-c2cnc(C)c(NS(=O)(=O)N3CCC(C)(C)CC3)c2)ccn1` [Compound I-483, N-(5-{[(4,4-dimethylpiperidin-1-yl)sulfonyl]amino}-6-methyl-3,4′-bipyridin-2′-yl)acetamide] the value was over 99%; for `CC(=O)Nc1cc(-c2cnc3c(c2)S(=O)(=O)NCCO3)ccn1` [Compound I-484, N-(4-(1,1-dioxido-3,4-dihydro-2H-pyrido[2,3-b][1,4,5]oxathiazepin-8-yl)pyridin-2-yl)acetamide], 92%.
The result for `CC(=O)Nc1cc(-c2cnc(C)c(C(=O)N(C)c3ccc(F)cc3F)c2)ccn1` [Compound I-485, 2′-acetamido-N-(2,4-difluorophenyl)-N,6-dimethyl-3,4′-bipyridine-5-carboxamide] reads 100%.
`Cc1nccc(Nc2cc(-c3cc(NS(=O)(=O)c4ccc(F)cc4F)c4ccnn4c3)ccn2)n1` [Compound I-486, 2,4-difluoro-N-(6-{2-[(2-methylpyrimidin-4-yl)amino]pyridin-4-yl}pyrazolo[1,5-a]pyridin-4-yl)benzenesulfonamide]: the inhibition at 1.11 µM is 84%.
Take `CC(=O)Nc1cc(-c2cnc(N(C)C)c(S(=O)(=O)NC(C)(C)C)c2C)ccn1` [Compound I-487, N-[5-(tert-butylsulfamoyl)-6-(dimethylamino)-4-methyl-3,4′-bipyridin-2′-yl]acetamide]: the inhibition at 1.11 µM was 71%.
For `CC(=O)Nc1cc(-c2cnc(Cl)c(NS(=O)(=O)N3CCCC3)c2C)ccn1` [Compound I-488, N-{6-chloro-4-methyl-5-[(pyrrolidin-1-ylsulfonyl)amino]-3,4′-bipyridin-2′-yl}acetamide] the value was over 99%.
